Calls of active or inactive are those of the source. How the calls were made is not given here.
Target: Chaperone protein DnaK (Escherichia coli (strain K12)) (UniProt P0A6Y8)
Assay: binders of DnaK substrate-binding domain, biophysical, NMR, chaperone (AID 1033)
Conditions: Purified DnaK SBD, NMR ligand binding

Chain of Chaperone protein DnaK (Escherichia coli (strain K12)) (P0A6Y8 whole entry, looked up, the tested form may be a part): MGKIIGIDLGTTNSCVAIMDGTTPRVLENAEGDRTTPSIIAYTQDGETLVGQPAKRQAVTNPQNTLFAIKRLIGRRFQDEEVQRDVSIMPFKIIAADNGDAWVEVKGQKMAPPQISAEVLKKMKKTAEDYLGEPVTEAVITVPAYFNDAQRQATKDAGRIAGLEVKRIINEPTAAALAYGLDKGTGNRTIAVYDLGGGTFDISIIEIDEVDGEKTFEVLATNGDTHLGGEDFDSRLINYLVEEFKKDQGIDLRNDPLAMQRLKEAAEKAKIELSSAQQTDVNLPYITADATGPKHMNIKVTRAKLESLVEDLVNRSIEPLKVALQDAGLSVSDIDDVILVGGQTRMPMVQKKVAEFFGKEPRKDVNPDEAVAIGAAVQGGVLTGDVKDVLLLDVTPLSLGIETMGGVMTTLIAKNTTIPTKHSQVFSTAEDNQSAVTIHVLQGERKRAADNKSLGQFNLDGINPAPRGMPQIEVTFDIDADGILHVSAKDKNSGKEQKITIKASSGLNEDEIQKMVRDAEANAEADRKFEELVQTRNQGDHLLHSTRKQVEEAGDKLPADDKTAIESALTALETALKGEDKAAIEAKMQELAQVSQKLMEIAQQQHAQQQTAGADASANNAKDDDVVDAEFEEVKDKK

**Q.** Which Kd does the source give for `Cc1nc2sc3c(c2c(=N)n1N)CC(C)(C)OC3` here?
**A.** The Kd was > 4 mM (inactive).

**Q.** Which Kd does the source give for `O=C(NCc1ccccn1)c1ccc(Br)s1` here?
**A.** Its Kd is > 4 mM (inactive).

**Q.** With `CS(=O)(=O)c1ccc2nc(N)sc2c1` as the molecule, how does the Kd read?
**A.** The Kd was > 4 mM (inactive).

**Q.** How did the Kd turn out when `CC12CCC(O)CC1CCC1C2[C@H](O)CC2(C)C(C3=CC(=O)OC3)CCC12O` (some centres undefined) was run?
**A.** Its Kd is > 4 mM (inactive).

**Q.** For `O=C(O)CCCCC1SCC2NC(=O)NC21` (centres undefined), which Kd is on record?
**A.** The Kd was > 4 mM (inactive).

**Q.** How did the Kd turn out when `CC(=O)N1CCn2c3c(c(=O)c4cc(C)ccc42)CCC31` (centres undefined) was run?
**A.** Its Kd is > 4 mM (inactive).

**Q.** With `COc1ccc(-c2coc3cc(O)ccc3c2=O)c(OC)c1` as the molecule, how does the Kd read?
**A.** Its Kd is > 4 mM (inactive).

**Q.** For `Cn1cnc2c(cnn2-c2ccccc2)c1=O`, which Kd is on record?
**A.** Its Kd is > 4 mM (inactive).

**Q.** With `COc1ccccc1-c1noc(-c2ccco2)n1` as the molecule, how does the Kd read?
**A.** The Kd was > 4 mM (inactive).

**Q.** Which Kd does the source give for `CC(=O)c1cccc(NC2=NCC(C)(C)S2)c1` here?
**A.** Its Kd is > 4 mM (inactive).

**Q.** How did the Kd turn out when `Cn1c(CN)nc2ccccc21` was run?
**A.** Its Kd is > 4 mM (inactive).

**Q.** How did the Kd turn out when `COC(=O)C1=CCCN(C)C1` was run?
**A.** The Kd was > 4 mM (inactive).

**Q.** Which Kd does the source give for `CC[C@@H]1[C@@H](O)N2C3C[C@H]1C1C(O)[C@]4(C[C@@H]12)c1ccccc1N(C)[C@@H]34` (some centres undefined) here?
**A.** Its Kd is > 4 mM (inactive).

**Q.** How did the Kd turn out when `O=C(O)CCc1nc2ccccc2[nH]c1=O` was run?
**A.** Its Kd is > 4 mM (inactive).

**Q.** With `C=C(C)CSc1nc2nc(C)cc(C)n2n1` as the molecule, how does the Kd read?
**A.** The Kd was > 4 mM (inactive).

**Q.** With `c1ccc(-c2noc(-c3ccc4c(c3)OCO4)n2)nc1` as the molecule, how does the Kd read?
**A.** The Kd was > 4 mM (inactive).

**Q.** With `CC1=C(C(N)=O)C(c2ccccc2)NC(=O)N1` (centres undefined) as the molecule, how does the Kd read?
**A.** Its Kd is > 4 mM (inactive).

**Q.** Which Kd does the source give for `c1ccc(Cn2c(Nn3cnnc3)nc3ccccc32)cc1` here?
**A.** The Kd was > 4 mM (inactive).

**Q.** Which Kd does the source give for `COc1ccc2c3c1O[C@H]1C[C@@H](O)C=C[C@@]31CCN(C)C2` here?
**A.** Its Kd is > 4 mM (inactive).

**Q.** For `Cc1c(C)[n+]([O-])c(-c2ccc([N+](=O)[O-])cc2)n1O`, which Kd is on record?
**A.** The Kd was > 4 mM (inactive).

**Q.** `O=C(O)CSc1nnc(-c2cccs2)o1` was tested. Which Kd did it give?
**A.** Its Kd is > 4 mM (inactive).

**Q.** For `COc1ccc2c(c1OC)C(=O)OC2[C@H]1c2c(cc3c(c2OC)OCO3)CCN1C` (some centres undefined), which Kd is on record?
**A.** The Kd was > 4 mM (inactive).

**Q.** `COc1ccc2nc(N)sc2c1` was tested. Which Kd did it give?
**A.** The Kd was > 4 mM (inactive).

**Q.** With `O=C(O)Cc1n[nH]c(=O)c2ccccc12` as the molecule, how does the Kd read?
**A.** The Kd was > 4 mM (inactive).

**Q.** For `O=C1C2CC=CCC2C(=O)N1c1ccccc1` (centres undefined), which Kd is on record?
**A.** The Kd was > 4 mM (inactive).

**Q.** How did the Kd turn out when `CSc1nc(NC(C)(C)C)nc(N2CCOCC2)n1` was run?
**A.** Its Kd is > 4 mM (inactive).

**Q.** With `O=C1NCC(=O)N2CCc3ccccc3C12` (centres undefined) as the molecule, how does the Kd read?
**A.** The Kd was > 4 mM (inactive).

**Q.** Which Kd does the source give for `OCc1cc(-c2cccs2)on1` here?
**A.** Its Kd is > 4 mM (inactive).

**Q.** How did the Kd turn out when `Nc1nc(N)nc(N2C(=O)c3ccccc3C2=O)n1` was run?
**A.** Its Kd is > 4 mM (inactive).

**Q.** `Cc1ccccc1-n1c(N)cc(=O)[nH]c1=S` was tested. Which Kd did it give?
**A.** The Kd was > 4 mM (inactive).

**Q.** For `Cc1cc(C(=O)N2CCN(S(C)(=O)=O)CC2)cs1`, which Kd is on record?
**A.** Its Kd is > 4 mM (inactive).

**Q.** For `O=c1ccc2c([nH]1)CCCC2`, which Kd is on record?
**A.** The Kd was > 4 mM (inactive).

**Q.** Which Kd does the source give for `C[C@@H]1OC(O[C@H]2C(O[C@H]3CC[C@@]4(C)C(CC[C@]5(C)C4CC=C4C6CC(C)(C)CC[C@]6(C(=O)O)CC[C@]45C)[C@]3(C)CO)OC[C@H](O)[C@@H]2O)[C@H](O)[C@H](O)[C@H]1O` (some centres undefined) here?
**A.** The Kd was > 4 mM (inactive).

**Q.** How did the Kd turn out when `O=C1C2C3CCC(O3)C2C(=O)N1c1ccccc1` (centres undefined) was run?
**A.** The Kd was > 4 mM (inactive).

**Q.** Which Kd does the source give for `CNC(=S)Nc1ccc(OC)cc1C` here?
**A.** The Kd was > 4 mM (inactive).

**Q.** `COc1ccc(S(=O)(=O)NCCO)cc1` was tested. Which Kd did it give?
**A.** The Kd was > 4 mM (inactive).

**Q.** With `CCn1ncc(Cl)c1C(=O)Nc1ccncc1` as the molecule, how does the Kd read?
**A.** Its Kd is > 4 mM (inactive).

**Q.** Which Kd does the source give for `CS(=O)(=O)c1ccc(N)cc1` here?
**A.** Its Kd is > 4 mM (inactive).

**Q.** `O=c1[nH]c(O)c(C=NCc2cccs2)c(=O)[nH]1` was tested. Which Kd did it give?
**A.** Its Kd is > 4 mM (inactive).

**Q.** With `COCC(=O)Nc1c(C(N)=O)oc2ccccc12` as the molecule, how does the Kd read?
**A.** The Kd was > 4 mM (inactive).

**Q.** For `O=C(O)Cc1nc(-c2ccncc2)n[nH]1`, which Kd is on record?
**A.** The Kd was > 4 mM (inactive).

**Q.** Which Kd does the source give for `O=C(Nc1ccccc1C(F)(F)F)c1cnccn1` here?
**A.** Its Kd is > 4 mM (inactive).

**Q.** For `c1ccc(CN2CCC3(CC2)Nc2ccccc2CO3)cc1`, which Kd is on record?
**A.** Its Kd is > 4 mM (inactive).

**Q.** Which Kd does the source give for `O=c1c(-c2ccc(O)cc2)coc2cc(O)ccc12` here?
**A.** The Kd was > 4 mM (inactive).

**Q.** `O=C(/C=C(\O)c1ccccc1)c1ccccc1O` was tested. Which Kd did it give?
**A.** The Kd was > 4 mM (inactive).

**Q.** How did the Kd turn out when `CC(C)CCCC(C)[C@H]1CCC2C3CC=C4C[C@@H](O)CC[C@]4(C)C3CC[C@@]21C` (some centres undefined) was run?
**A.** The Kd was > 4 mM (inactive).

**Q.** `CN1CN(Cc2ccccc2)CN/C1=N/[N+](=O)[O-]` was tested. Which Kd did it give?
**A.** Its Kd is > 4 mM (inactive).

**Q.** For `Cc1c(N=CN(C)C)c(=O)n(-c2ccccc2)n1C`, which Kd is on record?
**A.** The Kd was > 4 mM (inactive).

**Q.** How did the Kd turn out when `CC(=O)Oc1c2c(c(CC=C(C)C)c3c1C(=O)C1=C[C@@H]4CC5C(C)(C)OC(C/C=C(\C)C(=O)O)(C4=O)[C@@]15O3)OC(C)(CCC=C(C)C)C=C2` (some centres undefined) was run?
**A.** The Kd was > 4 mM (inactive).

**Q.** `C=C[C@](C)(O)CCC=C(C)C` was tested. Which Kd did it give?
**A.** The Kd was > 4 mM (inactive).

**Q.** `CCOc1nc(C)ccc1-c1noc(-c2ccco2)n1` was tested. Which Kd did it give?
**A.** The Kd was > 4 mM (inactive).

**Q.** Which Kd does the source give for `COC(=O)c1scc(S(C)(=O)=O)c1-n1cccc1` here?
**A.** Its Kd is > 4 mM (inactive).

**Q.** How did the Kd turn out when `C[C@H]1C(=O)O[C@@H]2CCN3CC=C(COC(=O)[C@](C)(O)[C@]1(C)O)[C@H]23` was run?
**A.** Its Kd is > 4 mM (inactive).

**Q.** Which Kd does the source give for `O=C(O)C1NCCc2ccccc21` (centres undefined) here?
**A.** Its Kd is > 4 mM (inactive).

**Q.** Which Kd does the source give for `Cn1ccc(C(=O)NC(=S)NN2CCOCC2)n1` here?
**A.** The Kd was > 4 mM (inactive).

**Q.** `Cc1cccn2cc(CNc3ccccc3)nc12` was tested. Which Kd did it give?
**A.** The Kd was > 4 mM (inactive).

**Q.** With `Cc1scc(C(=O)Nc2ccon2)c1-c1ccccc1` as the molecule, how does the Kd read?
**A.** The Kd was > 4 mM (inactive).

**Q.** `CCC[C@@H]1CCCCN1` was tested. Which Kd did it give?
**A.** The Kd was > 4 mM (inactive).

**Q.** With `Cc1ccc(-c2c(C)n([O-])c3c([n+]2=O)CCCC3)o1` as the molecule, how does the Kd read?
**A.** Its Kd is > 4 mM (inactive).

**Q.** How did the Kd turn out when `COc1ccc2ccc(=O)oc2c1CC=C(C)C` was run?
**A.** The Kd was > 4 mM (inactive).

**Q.** Which Kd does the source give for `O=C(c1ccc2c(c1)OCO2)N1CCC2(CC1)OCCO2` here?
**A.** Its Kd is > 4 mM (inactive).

**Q.** Which Kd does the source give for `Cc1cc(NC(=O)CSc2ccnc(=O)[nH]2)no1` here?
**A.** The Kd was > 4 mM (inactive).

**Q.** `Cc1cccc(NS(=O)(=O)c2cccs2)n1` was tested. Which Kd did it give?
**A.** The Kd was > 4 mM (inactive).

**Q.** How did the Kd turn out when `COc1ccc2c(c1)O[C@H]1c3ccc(OC)cc3OC[C@@H]21` was run?
**A.** The Kd was > 4 mM (inactive).

**Q.** For `Oc1ccc2c(c1)OCO2`, which Kd is on record?
**A.** The Kd was > 4 mM (inactive).

**Q.** `NC(=O)c1ccsc1NC(=O)C1=COCCO1` was tested. Which Kd did it give?
**A.** Its Kd is > 4 mM (inactive).

**Q.** How did the Kd turn out when `CCOC(=O)c1csc(C)n1` was run?
**A.** The Kd was > 4 mM (inactive).

**Q.** With `CCn1c2ccccc2c2nn(C)c(=N)nc21` as the molecule, how does the Kd read?
**A.** The Kd was > 4 mM (inactive).

**Q.** Which Kd does the source give for `Cc1ccc(C)c(S(=O)(=O)NCc2cccnc2)c1` here?
**A.** Its Kd is > 4 mM (inactive).

**Q.** Which Kd does the source give for `Cc1nn(-c2ccccc2C(=O)O)c(=O)c2ccccc12` here?
**A.** The Kd was > 4 mM (inactive).

**Q.** How did the Kd turn out when `CCCCn1c(S(=O)(=O)O)nc2ccccc21` was run?
**A.** Its Kd is > 4 mM (inactive).

**Q.** With `Cc1n[nH]c(C)c1N` as the molecule, how does the Kd read?
**A.** Its Kd is > 4 mM (inactive).

**Q.** For `CC(=O)Nc1cccc(N2CCCC2=O)c1`, which Kd is on record?
**A.** Its Kd is > 4 mM (inactive).

**Q.** `COc1ccc(C)cc1S(=O)(=O)Nc1ccccc1C` was tested. Which Kd did it give?
**A.** The Kd was > 4 mM (inactive).

**Q.** How did the Kd turn out when `COC1=CC(=O)C(O)=C/C1=C\C=C\c1ccccc1` was run?
**A.** The Kd was > 4 mM (inactive).

**Q.** With `COC(=O)CC1SC(=O)NC1=O` (centres undefined) as the molecule, how does the Kd read?
**A.** The Kd was > 4 mM (inactive).

**Q.** Which Kd does the source give for `Cc1n[nH]c(=S)[nH]c1=O` here?
**A.** Its Kd is > 4 mM (inactive).

**Q.** With `Cc1nn2c(=O)c(NC(=O)c3ccccc3)cnc2s1` as the molecule, how does the Kd read?
**A.** Its Kd is > 4 mM (inactive).

**Q.** `CN(C)c1nc(N)nc(Cn2ccnc2)n1` was tested. Which Kd did it give?
**A.** The Kd was > 4 mM (inactive).

**Q.** Which Kd does the source give for `Cc1cc(=O)cc(C)n1-c1ccccc1N` here?
**A.** The Kd was > 4 mM (inactive).

**Q.** `Cc1cc(C(=O)Nc2cccnc2)no1` was tested. Which Kd did it give?
**A.** Its Kd is > 4 mM (inactive).

**Q.** `CC(C)(C)NC(=O)CN1C(=O)c2ccccc2S1(=O)=O` was tested. Which Kd did it give?
**A.** The Kd was > 4 mM (inactive).

**Q.** Which Kd does the source give for `CCSc1nnc2[nH]c(=O)cc(C)n12` here?
**A.** The Kd was > 4 mM (inactive).

**Q.** `O=[N+]([O-])c1cccc2c1nnn2C(CO)OCCO` (centres undefined) was tested. Which Kd did it give?
**A.** The Kd was > 4 mM (inactive).
